Test results from ChEMBL document CHEMBL1151449, “In vitro activity of DC-159a, a new broad-spectrum fluoroquinolone, compared with that of other agents against drug-susceptible and -resistant pneumococci” (2008).
Converted amounts (≈) assume the structure as drawn.

Legend:
Type in all cases: functional
Streptococcus pneumoniae [1] = test: Antibacterial activity against penicillin- and quinolone-susceptible Streptococcus pneumoniae HMC 5055 expressing mefA by broth microdilution method
Streptococcus pneumoniae [2] = test: (§1) Antibacterial activity against penicillin-resistant and quinolone-susceptible Streptococcus pneumoniae HMC 3583 expressing mefA and harboring S81F mutation in quinolone-resistant determining regions of GyrA gene, D83N mutation in QRDR of ParC gene and I460V mutation in QRDR of ParE gene after 44 passages with levofloxacin measured after 10 daily antibiotic-free subculturing by multi-step resistance selection technique
Streptococcus pneumoniae [3] = test: (§2) Antibacterial activity against Streptococcus pneumoniae HMC 1076 harboring S81F mutation in quinolone-resistant determining regions of GyrA gene, D83N mutation in QRDR of ParC gene and I460V mutation in QRDR of ParE gene by agar dilution method
Streptococcus pneumoniae [4] = test: Antibacterial activity against Streptococcus pneumoniae HMC 1156 harboring S81F and S79F mutation in quinolone-resistant determining regions of GyrA and ParC genes respectively showing efflux to ciprofloxacin, gemifloxacin by agar dilution method
Streptococcus pneumoniae [5] = test: Antibacterial activity against Streptococcus pneumoniae HMC 1149 harboring S81F and S79Y mutation in quinolone-resistant determining regions of GyrA and ParC genes respectively showing efflux to ciprofloxacin, gemifloxacin by agar dilution method
Streptococcus pneumoniae [6] = test: Antibacterial activity against quinolone-susceptible and penicillin-intermediate Streptococcus pneumoniae HMC 5048 expressing mefA by broth microdilution method
Streptococcus pneumoniae [7] = test: as §2, with “against penicillin-, macrolide-susceptible and quinolone-resistant” for “against”, “1074” for “1076”, “S79F” for “D83N”, “broth microdilution” for “agar dilution”
Streptococcus pneumoniae [8] = test: Antibacterial activity against Streptococcus pneumoniae HMC 1151 harboring D83N, K137N mutation in quinolone-resistant determining regions of ParC gene and I460V mutation in QRDR of ParE gene showing efflux to ciprofloxacin, gemifloxacin by agar dilution method
Streptococcus pneumoniae [9] = test: Antibacterial activity against penicillin-, quinolone-resistant Streptococcus pneumoniae HMC 1541 harboring mutation in L4 protein by broth microdilution method
Streptococcus pneumoniae [10] = test: (§3) Antibacterial activity against macrolide-, quinolone-susceptible and penicillin-intermediate Streptococcus pneumoniae HMC 100 harboring S81Y mutation in quinolone-resistant determining regions of GyrA gene after 22 passages with moxifloxacin measured after 10 daily antibiotic-free subculturing by multi-step resistance selection technique
Streptococcus pneumoniae [11] = test: Antibacterial activity against Streptococcus pneumoniae HMC 2527 harboring S81Y mutation in quinolone-resistant determining regions of GyrA gene, S79F, K137N mutation in QRDR of ParC gene and I460V mutation in QRDR of ParE gene by agar dilution method
Streptococcus pneumoniae [12] = test: Antibacterial activity against Streptococcus pneumoniae HMC 1058 harboring S79F, K137N mutation in quinolone-resistant determining regions of ParC gene and 460V mutation in QRDR of ParE gene by agar dilution method
Streptococcus pneumoniae [13] = test: Antibacterial activity against Streptococcus pneumoniae HMC 1055 harboring S81F mutation in quinolone-resistant determining regions of GyrA gene, S79F, K137N mutation in QRDR of ParC gene and I460V mutation in QRDR of ParE gene by agar dilution method
Streptococcus pneumoniae [14] = test: Antibacterial activity against Streptococcus pneumoniae HMC 5041 harboring S81F and S79F mutation in quinolone-resistant determining regions of GyrA and ParC genes respectively by agar dilution method
Streptococcus pneumoniae [15] = test: Antibacterial activity against penicillin-, quinolone-resistant and macrolide-susceptible Streptococcus pneumoniae HMC 1058 harboring S79F, K137N mutation in quinolone-resistant determining regions of ParC gene and 460V mutation in QRDR of ParE gene by broth microdilution method
Streptococcus pneumoniae [16] = test: as §1, with “GyrA” for “GyrA gene, D83N mutation in QRDR of ParC”, “I460V, D435N” for “I460V”, “46” for “44”, “gatifloxacin” for “levofloxacin”
Streptococcus pneumoniae [17] = test: Antibacterial activity against penicillin-susceptible Streptococcus pneumoniae ATCC 49619 by agar dilution method
Streptococcus pneumoniae [18] = test: as §1, with “49” for “44”, “DC-159a” for “levofloxacin”
Streptococcus pneumoniae [19] = test: Antibacterial activity against Streptococcus pneumoniae HMC 2538 harboring S81Y mutation in quinolone-resistant determining regions of GyrA gene, S79F, K137N mutation in QRDR of ParC gene and I460V mutation in QRDR of ParE gene showing efflux to ciprofloxacin, levofloxacin, gatifloxacin by agar dilution method
Streptococcus pneumoniae [20] = test: Antibacterial activity against Streptococcus pneumoniae HMC 1146 harboring S81F mutation in quinolone-resistant determining regions of GyrA gene, and D435N mutation in QRDR of ParE gene by agar dilution method
Streptococcus pneumoniae [21] = test: Antibacterial activity against macrolide-, quinolone-susceptible and penicillin-intermediate Streptococcus pneumoniae HMC 99 after 50 passages by broth microdilution method
Streptococcus pneumoniae [22] = test: Antibacterial activity against quinolone-susceptible Streptococcus pneumoniae ATCC 49619 by agar dilution method
Streptococcus pneumoniae [23] = test: as §3, with “S79Y” for “S81Y”, “ParC” for “GyrA”, “34” for “22”, “gemifloxacin” for “moxifloxacin”
Streptococcus pneumoniae [24] = test: Antibacterial activity against Streptococcus pneumoniae HMC 1150 harboring S81C mutation in quinolone-resistant determining regions of GyrA gene, S79F mutation in QRDR of ParC gene and I460V mutation in QRDR of ParE gene by agar dilution method
Streptococcus pneumoniae [25] = test: Antibacterial activity against penicillin-intermediate Streptococcus pneumoniae […] by agar dilution method
Streptococcus pneumoniae [26] = test: Antibacterial activity against macrolide-, quinolone-susceptible and penicillin-intermediate Streptococcus pneumoniae HMC 99 by broth microdilution method
Streptococcus pneumoniae [27] = test: Antibacterial activity against Streptococcus pneumoniae HMC 1541 harboring S81Y mutation in quinolone-resistant determining regions of GyrA gene, S79F, K137N mutation in QRDR of ParC gene and I460V mutation in QRDR of ParE gene by agar dilution method
Streptococcus pneumoniae [28] = test: Antibacterial activity against Streptococcus pneumoniae HMC 4026 harboring S81Y mutation in quinolone-resistant determining regions of GyrA gene, S79F, K137N mutation in QRDR of ParC gene and I460V mutation in QRDR of ParE gene by agar dilution method
Streptococcus pneumoniae [29] = test: (§4) Antibacterial activity against penicillin-susceptible, quinolone-resistant Streptococcus pneumoniae 1072 expressing ermB and harboring S81F mutation in quinolone-resistant determining regions of GyrA gene, S79Y mutation in QRDR of ParC gene and I460V mutation in QRDR of ParE gene by broth microdilution method
Streptococcus pneumoniae [30] = test: as §4, with “Streptococcus pneumoniae HMC 1072 expressing” for “Streptococcus pneumoniae 1072 expressing”, “ParE gene after 50 passages by broth” for “ParE gene by broth”
Streptococcus pneumoniae [31] = test: Antibacterial activity against penicillin-resistant and quinolone-susceptible Streptococcus pneumoniae HMC 3583 expressing mefA by broth microdilution method
Streptococcus pneumoniae [32] = test: Antibacterial activity against penicillin-, macrolide- and quinolone-susceptible Streptococcus pneumoniae HMC 63 after 50 passages by broth microdilution method

| Structure (SMILES) | MIC (Streptococcus pneumoniae [1]) [µg/mL] | MIC (Streptococcus pneumoniae [2]) [µg/mL] | MIC (Streptococcus pneumoniae [3]) [µg/mL] | MIC (Streptococcus pneumoniae [4]) [µg/mL] | MIC (Streptococcus pneumoniae [5]) [µg/mL] | MIC (Streptococcus pneumoniae [8]) [µg/mL] | MIC (Streptococcus pneumoniae [9]) [µg/mL] | MIC (Streptococcus pneumoniae [10]) [µg/mL] | MIC (Streptococcus pneumoniae [11]) [µg/mL] | MIC (Streptococcus pneumoniae [12]) [µg/mL] | MIC (Streptococcus pneumoniae [13]) [µg/mL] | MIC (Streptococcus pneumoniae [14]) [µg/mL] | MIC (Streptococcus pneumoniae [15]) [µg/mL] | MIC (Streptococcus pneumoniae [16]) [µg/mL] | MIC (Streptococcus pneumoniae [18]) [µg/mL] | MIC (Streptococcus pneumoniae [19]) [µg/mL] | MIC (Streptococcus pneumoniae [20]) [µg/mL] | MIC (Streptococcus pneumoniae [23]) [µg/mL] | MIC (Streptococcus pneumoniae [24]) [µg/mL] | MIC (Streptococcus pneumoniae [27]) [µg/mL] | also measured |
| --- | --- | --- | --- | --- | --- | --- | --- | --- | --- | --- | --- | --- | --- | --- | --- | --- | --- | --- | --- | --- | --- |
| CO/N=C1\CN(c2nc3c(cc2F)c(=O)c(C(=O)O)cn3C2CC2)CC1CN (stereo not drawn) [GEMIFLOXACIN] | 0.03 (≈ 0.077 µM) | 0.25 (≈ 0.642 µM) | 0.5 (≈ 1.28 µM) | 0.1 (≈ 0.257 µM) | 0.25 (≈ 0.642 µM) | 0.25 (≈ 0.642 µM) | 0.5 (≈ 1.28 µM) | 0.25 (≈ 0.642 µM) | 0.25 (≈ 0.642 µM) | 0.125 (≈ 0.321 µM) | 0.5 (≈ 1.28 µM) | 0.5 (≈ 1.28 µM) | 0.12 (≈ 0.308 µM) | 8 (≈ 20.5 µM) | 4 (≈ 10.3 µM) | 0.25 (≈ 0.642 µM) | 0.5 (≈ 1.28 µM) | 1 (≈ 2.57 µM) | 0.25 (≈ 0.642 µM) | 0.25 (≈ 0.642 µM) | MIC (Streptococcus pneumoniae [6]): 0.03 µg/mL (≈ 0.077 µM); MIC (Streptococcus pneumoniae [7]): 0.25 µg/mL (≈ 0.642 µM); MIC50 (Streptococcus pneumoniae [17]): 0.03 µg/mL (≈ 0.077 µM); MIC90 (Streptococcus pneumoniae [17]): 0.12 µg/mL (≈ 0.308 µM); MIC (Streptococcus pneumoniae [21]): 0.125 µg/mL (≈ 0.321 µM); MIC50 (Streptococcus pneumoniae [22]): 0.03 µg/mL (≈ 0.077 µM); MIC90 (Streptococcus pneumoniae [22]): 0.06 µg/mL (≈ 0.154 µM); MIC50 (Streptococcus pneumoniae [25]): 0.03 µg/mL (≈ 0.077 µM); MIC90 (Streptococcus pneumoniae [25]): 0.06 µg/mL (≈ 0.154 µM); MIC (Streptococcus pneumoniae [26]): 0.06 µg/mL (≈ 0.154 µM); MIC (Streptococcus pneumoniae [28]): 0.5 µg/mL (≈ 1.28 µM); MIC (Streptococcus pneumoniae [29]): 0.5 µg/mL (≈ 1.28 µM); MIC (Streptococcus pneumoniae [30]): 1 µg/mL (≈ 2.57 µM); MIC (Streptococcus pneumoniae [31]): 0.03 µg/mL (≈ 0.077 µM) |
| COc1c(N2C[C@@H]3CCCN[C@@H]3C2)c(F)cc2c(=O)c(C(=O)O)cn(C3CC3)c12 [MOXIFLOXACIN] | 0.25 (≈ 0.623 µM) | 4 (≈ 9.96 µM) | 2 (≈ 4.98 µM) | 4 (≈ 9.96 µM) | 0.25 (≈ 0.623 µM) | 0.25 (≈ 0.623 µM) | 4 (≈ 9.96 µM) | 1 (≈ 2.49 µM) | 4 (≈ 9.96 µM) | 0.5 (≈ 1.25 µM) | 4 (≈ 9.96 µM) | 4 (≈ 9.96 µM) | 2 (≈ 4.98 µM) | 4 (≈ 9.96 µM) | 2 (≈ 4.98 µM) | 2 (≈ 4.98 µM) | 2 (≈ 4.98 µM) | 2 (≈ 4.98 µM) | 1 (≈ 2.49 µM) | 2 (≈ 4.98 µM) | MIC (Streptococcus pneumoniae [32]): 0.25 µg/mL (≈ 0.623 µM); MIC (Streptococcus pneumoniae [28]): 4 µg/mL (≈ 9.96 µM); MIC (Streptococcus pneumoniae [29]): 4 µg/mL (≈ 9.96 µM); MIC (Streptococcus pneumoniae [30]): 4 µg/mL (≈ 9.96 µM) |
